Data: patent US8575197B2, “Pyrolinone derivative and pharmaceutical composition comprising the same” (Shionogi & Co., Ltd., priority 2008, dated 2013)

Target: human P2X3 receptor (Homo sapiens (Human), UniProt P56373)
Test: P2X3 receptor inhibition, ATP-evoked Fluo-3 calcium fluorescence (FDSS 3000)
Type: cell-based
Settings: C6BU-1 cell transfected with human P2X3 receptor gene; ATP-evoked Fluo-3 fluorescence
Procedure, shortened: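 C6BU-1 cells stably transfected with human P2X3, loaded with 4 μM Fluo-3-AM for 1 h at 37 °C in HEPES buffer pH 7.5 with probenecid. Compound added 5 min before 40 nM ATP solution; fluorescence followed 3 min. IC50 from ratio of peak post-ATP to baseline fluorescence.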

Chain of human P2X3 receptor (P56373 whole entry): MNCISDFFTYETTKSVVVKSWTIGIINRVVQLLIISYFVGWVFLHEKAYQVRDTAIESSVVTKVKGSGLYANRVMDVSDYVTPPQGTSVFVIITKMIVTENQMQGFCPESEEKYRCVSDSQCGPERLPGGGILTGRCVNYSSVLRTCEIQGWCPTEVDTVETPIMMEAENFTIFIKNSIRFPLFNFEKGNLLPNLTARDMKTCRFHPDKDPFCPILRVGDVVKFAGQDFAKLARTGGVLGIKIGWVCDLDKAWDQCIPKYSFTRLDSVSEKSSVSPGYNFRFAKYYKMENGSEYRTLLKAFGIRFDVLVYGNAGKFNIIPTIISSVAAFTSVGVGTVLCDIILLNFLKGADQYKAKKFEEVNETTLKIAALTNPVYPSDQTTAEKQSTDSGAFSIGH

Structure (SMILES) | IC50 [nM]
COc1ccccc1C1C(C(=O)C(C)C)=C(O)C(=O)N1c1ccc(-c2cc(C)on2)cc1 (stereo not shown) [Compound I-457] | 488
COCc1ccccc1C1C(C(=O)C(C)C)=C(O)C(=O)N1c1ccc(-c2cc(C)on2)cc1 (stereo not shown) [Compound I-458] | 699
COc1ccccc1C1C(C(=O)c2cccnc2)=C(O)C(=O)N1c1ccc(-c2ccsc2)cc1 (stereo not shown) [Compound I-460] | 103
COc1ncccc1C1C(C(=O)CC(C)(C)C)=C(O)C(=O)N1c1ccc(-c2ccsc2)cc1 (stereo not shown) [Compound I-462] | 427
COCCOc1ncccc1C1C(C(=O)CC(C)(C)C)=C(O)C(=O)N1c1ccc(-c2ccsc2)cc1 (stereo not shown) [Compound I-463] | 127
CCc1nc2cc(N3C(=O)C(O)=C(C(=O)C(C)C)C3c3ccccc3OC(C)C)ccc2o1 (stereo not shown) [Compound I-464] | 453
CN(C)C(=O)c1ccccc1C1C(C(=O)CC(C)(C)C)=C(O)C(=O)N1c1ccc(-c2ccsc2)cc1 (stereo not shown) [Compound I-466] | 260
COc1ccccc1C1C(S(=O)(=O)C(C)C)=C(O)C(=O)N1c1ccc(-c2ccc(C)o2)cc1 (stereo not shown) [Compound I-467] | 286
COc1ccccc1C1C(S(C)(=O)=O)=C(O)C(=O)N1c1ccc(-c2ccc(C)o2)cc1 (stereo not shown) [Compound I-468] | 467
Cc1nc(-c2ccc(NC3=CC(C4CCCCC4)N(c4ccc(-c5noc(C)n5)cc4)C3=O)cc2)no1 (stereo not shown) [Compound I-469] | 646
CCOC(=O)C(C)(C)C(=O)C1=C(O)C(=O)N(c2ccc(-c3csc(C)c3)cc2)C1c1ccccc1OC (stereo not shown) [Compound I-470] | 972
COc1ccccc1C1C(C(=O)C(C)C)=C(O)C(=O)N1c1ccc(SC)cc1 (stereo not shown) [Compound I-473] | 182
CSc1ccc(N2C(=O)C(O)=C(C(=O)C(C)C)C2c2ccccc2OC(C)C)cc1 (stereo not shown) [Compound I-474] | 71
COCCOc1ccccc1C1C(C(=O)C(C)C)=C(O)C(=O)N1c1ccc(SC)cc1 (stereo not shown) [Compound I-475] | 181
COCc1ccccc1C1C(C(=O)C(C)C)=C(O)C(=O)N1c1ccc(SC)cc1 (stereo not shown) [Compound I-477] | 477
COCCOc1ccccc1C1C(C(=O)C(C)C)=C(O)C(=O)N1c1ccc(-c2cc(C)on2)cc1 (stereo not shown) [Compound I-481] | 378
O=C1C(O)=C(S(=O)(=O)c2ccccc2)C(C2CCCCC2)N1c1ccc(-c2ccon2)cc1 (stereo not shown) [Compound I-482] | 333
Cc1ccc(-c2ccc(N3C(=O)C(O)=C(C(=O)C(C)C)C3c3cccnc3OCCO)cc2)o1 (stereo not shown) [Compound I-483] | 89
COCCCOc1ccccc1C1C(C(=O)C(C)C)=C(O)C(=O)N1c1ccc(SC)cc1 (stereo not shown) [Compound I-484] | 91
COCCOc1ncccc1C1C(C(=O)C(C)C)=C(O)C(=O)N1c1ccc(SC)cc1 (stereo not shown) [Compound I-485] | 218

Structure (SMILES) | IC50 [nM]
Cc1nc(-c2ccc(N3C(=O)C(O)=C(C(=O)C(C)C)C3c3ccccc3N3CCOCC3)cc2)no1 (stereo not shown) [Compound I-487] | 167
Cc1nc(-c2ccc(N3C(=O)C(O)=C(C(=O)CC(C)C)C3c3ccccc3N3CCOCC3)cc2)no1 (stereo not shown) [Compound I-488] | 67
COCCCOc1ccccc1C1C(C(=O)C(C)C)=C(O)C(=O)N1c1ccc(-c2noc(C)n2)cc1 (stereo not shown) [Compound I-491] | 155
COCCCOc1ccccc1C1C(C(=O)CC(C)C)=C(O)C(=O)N1c1ccc(-c2noc(C)n2)cc1 (stereo not shown) [Compound I-492] | 104
Cc1ccc(-c2ccc(N3C(=O)C(O)=C(C(=O)C(C)C)C3c3ccccc3CC(=O)N(C)C)cc2)o1 (stereo not shown) [Compound I-493] | 105
CCN(C)C(=O)c1ccccc1C1C(C(=O)C(C)C)=C(O)C(=O)N1c1ccc(-c2ccc(C)o2)cc1 (stereo not shown) [Compound I-495] | 59
COCCN(C)C(=O)c1ccccc1C1C(C(=O)CC(C)C)=C(O)C(=O)N1c1ccc(-c2ccc(C)o2)cc1 (stereo not shown) [Compound I-496] | 55
Cc1nc(-c2ccc(N3C(=O)C(O)=C(S(=O)(=O)c4ccccc4)C3C3CCCCC3)cc2)no1 (stereo not shown) [Compound I-499] | 398
Cc1nc(-c2ccc(N3C(=O)C(O)=C(C(=O)C(C)C)C3c3ccccc3OC3CCOCC3)cc2)no1 (stereo not shown) [Compound I-502] | 67
Cc1ccc(-c2ccc(N3C(=O)C(O)=C(C(=O)CC(C)C)C3c3cccnc3C(=O)OC(C)C)cc2)s1 (stereo not shown) [Compound I-504] | 238
Cc1cc(-c2ccc(N3C(=O)C(O)=C(C(=O)CC(C)C)C3c3ccccc3C(=O)N3CCOCC3)cc2)cs1 (stereo not shown) [Compound I-505] | 168
Cc1ccc(-c2ccc(N3C(=O)C(O)=C(C(=O)CC(C)C)C3c3ccccc3C(=O)N3CCOCC3)cc2)o1 (stereo not shown) [Compound I-506] | 112
Cc1cc(-c2ccc(N3C(=O)C(O)=C(C(=O)C(C)C)C3c3ccccc3S(C)(=O)=O)cc2)cs1 (stereo not shown) [Compound I-507] | 101
Cc1nc(-c2ccc(N3C(=O)C(O)=C(C(=O)C(C)C)C3c3ccccc3OCC#N)cc2)no1 (stereo not shown) [Compound I-508] | 133
CSc1ccc(N2C(=O)C(O)=C(C(=O)C(C)C)C2c2ccccc2OCC#N)cc1 (stereo not shown) [Compound I-509] | 247
CSc1ccc(N2C(=O)C(O)=C(C(=O)CC(C)C)C2c2ccccc2OCC#N)cc1 (stereo not shown) [Compound I-511] | 117
CC(C)Oc1ccccc1C1C(C(=O)C2CCCC2)=C(O)C(=O)N1c1ccc(-c2ccon2)cc1 (stereo not shown) [Compound I-512] | 62
CC(C)COc1ccccc1C1C(C(=O)C2CCCC2)=C(O)C(=O)N1c1ccc(-c2ccon2)cc1 (stereo not shown) [Compound I-513] | 65
CN(C)C(=O)c1ccccc1C1C(C(=O)C2CCCC2)=C(O)C(=O)N1c1ccc(-c2ccsc2)cc1 (stereo not shown) [Compound I-514] | 138
Cc1nc(-c2ccc(N3C(=O)C(O)=C(C(=O)C4CCCC4)C3c3ccccc3OC(C)C)cc2)no1 (stereo not shown) [Compound I-518] | 87

The next molecules have a lower IC50 than those just listed; values first:

IC50 [nM] | Structure (SMILES)
53 | CCN(C)C(=O)c1ccccc1C1C(C(=O)C(C)C)=C(O)C(=O)N1c1ccc(-c2csc(C)c2)cc1 (stereo not shown) [Compound I-494]
52 | Cc1nc(-c2ccc(N3C(=O)C(O)=C(C(=O)C(C)C)C3c3ccccc3OCC3OCCO3)cc2)no1 (stereo not shown) [Compound I-501]
51 | CSc1ccc(N2C(=O)C(O)=C(C(=O)C(C)C)C2c2ccccc2OCCCO)cc1 (stereo not shown) [Compound I-476]
42 | COc1ccc(C(=O)C2=C(O)C(=O)N(c3ccc(-c4cc(C)on4)cc3)C2c2ccccc2OC)cc1 (stereo not shown) [Compound I-480]
41 | COc1ccc(F)cc1C1C(C(=O)C(C)C)=C(O)C(=O)N1c1ccc(-c2csc(C)c2)cc1 (stereo not shown) [Compound I-453]
37 | CCOc1ncccc1C1C(C(=O)C2CCCC2)=C(O)C(=O)N1c1ccc(-c2ccsc2)cc1 (stereo not shown) [Compound I-515]
36 | CC(C)COc1ccccc1C1C(C(=O)C(C)C)=C(O)C(=O)N1c1ccc(-c2ccon2)cc1 (stereo not shown) [Compound I-450]
36 | COc1ccc(F)cc1C1C(C(=O)C(C)C)=C(O)C(=O)N1c1ccc(-c2ccc(C)o2)cc1 (stereo not shown) [Compound I-454]
36 | COCc1ccccc1C1C(C(=O)c2cccnc2)=C(O)C(=O)N1c1ccc(-c2ccsc2)cc1 (stereo not shown) [Compound I-461]
36 | COCCN(C)C(=O)c1ccccc1C1C(C(=O)CC(C)C)=C(O)C(=O)N1c1ccc(-c2csc(C)c2)cc1 (stereo not shown) [Compound I-497]
34 | Cc1ccc(-c2ccc(N3C(=O)C(O)=C(C(=O)C(C)C)C3c3cccnc3OCCCO)cc2)o1 (stereo not shown) [Compound I-478]
33 | COCc1ccccc1C1C(C(=O)C2CCCC2)=C(O)C(=O)N1c1ccc(-c2ccsc2)cc1 (stereo not shown) [Compound I-516]
33 | Cc1nc(-c2ccc(N3C(=O)C(O)=C(C(=O)C4CCCC4)C3c3ccccc3OCC(C)C)cc2)no1 (stereo not shown) [Compound I-519]
26 | COc1ccc(F)cc1C1C(C(=O)C(C)C)=C(O)C(=O)N1c1ccc(-c2ccsc2)cc1 (stereo not shown) [Compound I-452]
26 | CC(C)Oc1ccccc1C1C(C(=O)C(C)C)=C(O)C(=O)N1c1ccc(N2CCCC2)cc1 (stereo not shown) [Compound I-459]
26 | COCCOc1ncccc1C1C(C(=O)C2CCCC2)=C(O)C(=O)N1c1ccc(-c2ccsc2)cc1 (stereo not shown) [Compound I-517]
19 | Cc1nc(-c2ccc(N3C(=O)C(O)=C(C(=O)C(C)C)C3c3ccccc3OCC(C)C)cc2)no1 (stereo not shown) [Compound I-451]
19 | COCCCOc1ncccc1C1C(C(=O)C(C)C)=C(O)C(=O)N1c1ccc(-c2ccc(C)o2)cc1 (stereo not shown) [Compound I-471]
17 | COCCCOc1ccccc1C1C(C(=O)CC(C)C)=C(O)C(=O)N1c1ccc(-c2ccsc2)cc1 (stereo not shown) [Compound I-490]
17 | Cc1nc(-c2ccc(N3C(=O)C(O)=C(C(=O)C(C)C)C3c3ccccc3OC3CCCC3)cc2)no1 (stereo not shown) [Compound I-503]
14 | COCc1ccccc1[C@@H]1C(C(=O)C(C)C)=C(O)C(=O)N1c1ccc(-c2csc(C)c2)cc1 [Compound I-455]
13 | CC(C)COc1ccccc1C1C(C(=O)C(C)C)=C(O)C(=O)N1c1ccc(-c2ccsc2)cc1 (stereo not shown) [Compound I-449]
12 | Cc1cc(-c2ccc(N3C(=O)C(O)=C(C(=O)C(C)C)C3c3ccccc3OCC3OCCO3)cc2)cs1 (stereo not shown) [Compound I-500]
10 | Cc1ccc(-c2ccc(N3C(=O)C(O)=C(C(=O)C(C)C)C3c3cccnc3OC(C)C)cc2)o1 (stereo not shown) [Compound I-479]
8 | CC(C)CC(=O)C1=C(O)C(=O)N(c2ccc(-c3ccsc3)cc2)C1c1ccccc1OCC(CO)CO (stereo not shown) [Compound I-498]
7 | COCCOc1ccccc1[C@@H]1C(C(=O)C(C)C)=C(O)C(=O)N1c1ccc(-c2ccc(C)s2)cc1 [Compound I-465]
7 | COCCOc1ncccc1[C@@H]1C(C(=O)C(C)C)=C(O)C(=O)N1c1ccc(-c2ccc(C)s2)cc1 [Compound I-472]
6 | CC(C)C(=O)C1=C(O)C(=O)N(c2ccc(-c3ccsc3)cc2)C1c1ccccc1OCC(CO)CO (stereo not shown) [Compound I-456]
6 | COCCCOc1ccccc1C1C(C(=O)C(C)C)=C(O)C(=O)N1c1ccc(-c2ccsc2)cc1 (stereo not shown) [Compound I-489]
4 | Cc1ccc(-c2ccc(N3C(=O)C(O)=C(C(=O)C(C)C)C3c3ccccc3N3CCOCC3)cc2)o1 (stereo not shown) [Compound I-486]
